According to the supplement of paper PMC10307832:

What was measured:
Test in all cases: relative viability (nuclei count vs DMSO), 5 days (fraction); higher = more cells survive
Idelalisib + Pictilisib = compound: CC[C@H](Nc1ncnc2[nH]cnc12)c1nc2cccc(F)c2c(=O)n1-c1ccccc1 [Idelalisib] + CS(=O)(=O)N1CCN(Cc2cc3nc(-c4cccc5[nH]ncc45)nc(N4CCOCC4)c3s2)CC1 [Pictilisib] (partner 1 µM)
How it was run: (§1)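 Lung cancer cell lines in 1536-well plates got either a single drug or a fixed anchor-drug dose together with five library-drug doses (not always all listed) in √10 steps, by pin tool, on the day after seeding. Nuclei were counted after 5 days, and relative viability is the treated-to-vehicle ratio of nuclei counts. Values are medians of duplicate plates.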

Pemetrexed + Trametinib = compound: Nc1nc2[nH]cc(CCc3ccc(C(=O)N[C@@H](CCC(=O)O)C(=O)O)cc3)c2c(=O)[nH]1 [Pemetrexed] + CC(=O)Nc1cccc(-n2c(=O)n(C3CC3)c(=O)c3c(Nc4ccc(I)cc4F)n(C)c(=O)c(C)c32)c1 [Trametinib] (partner 0.02 µM)
How it was run: as §1

Pemetrexed + Olaparib = compound: Nc1nc2[nH]cc(CCc3ccc(C(=O)N[C@@H](CCC(=O)O)C(=O)O)cc3)c2c(=O)[nH]1 [Pemetrexed] + O=C(c1cc(Cc2n[nH]c(=O)c3ccccc23)ccc1F)N1CCN(C(=O)C2CC2)CC1 [Olaparib] (partner 8 µM)
How it was run: as §1

Pemetrexed + Alpelisib = compound: Nc1nc2[nH]cc(CCc3ccc(C(=O)N[C@@H](CCC(=O)O)C(=O)O)cc3)c2c(=O)[nH]1 [Pemetrexed] + Cc1nc(NC(=O)N2CCC[C@H]2C(N)=O)sc1-c1ccnc(C(C)(C)C(F)(F)F)c1 [Alpelisib] (partner 2 µM)
How it was run: as §1

| Cell Line | relative viability (Idelalisib + Pictilisib; first compound 0.04 µM) | relative viability (Idelalisib + Pictilisib; first compound 0.1265 µM) | relative viability (Idelalisib + Pictilisib; first compound 0.4 µM) | relative viability (Idelalisib + Pictilisib; first compound 1.265 µM) | relative viability (Idelalisib + Pictilisib; first compound 4 µM) | relative viability (Pemetrexed + Trametinib; first compound 0.002 µM) | relative viability (Pemetrexed + Trametinib; first compound 0.006325 µM) | relative viability (Pemetrexed + Trametinib; first compound 0.02 µM) | relative viability (Pemetrexed + Trametinib; first compound 0.06325 µM) | relative viability (Pemetrexed + Trametinib; first compound 0.2 µM) | relative viability (Pemetrexed + Olaparib; first compound 0.002 µM) | relative viability (Pemetrexed + Olaparib; first compound 0.006325 µM) | relative viability (Pemetrexed + Olaparib; first compound 0.02 µM) | relative viability (Pemetrexed + Olaparib; first compound 0.06325 µM) | relative viability (Pemetrexed + Olaparib; first compound 0.2 µM) | relative viability (Pemetrexed + Alpelisib; first compound 0.002 µM) | relative viability (Pemetrexed + Alpelisib; first compound 0.006325 µM) | relative viability (Pemetrexed + Alpelisib; first compound 0.02 µM) | relative viability (Pemetrexed + Alpelisib; first compound 0.06325 µM) | relative viability (Pemetrexed + Alpelisib; first compound 0.2 µM) |
| --- | --- | --- | --- | --- | --- | --- | --- | --- | --- | --- | --- | --- | --- | --- | --- | --- | --- | --- | --- | --- |
| HCC-44 | 0.679 | 0.646 | 0.526 | 0.59 | 0.591 | 0.946 | 1.05 | 1.14 | 1.09 | 1.04 | 0.97 | 0.952 | 0.987 | 0.964 | 0.909 | 0.771 | 0.732 | 0.854 | 0.785 | 0.602 |
| HCC-78 | 0.222 | 0.208 | 0.206 | 0.21 | 0.228 | – | 0.671 | 0.676 | 0.382 | 0.356 | – | 0.792 | 0.662 | 0.29 | 0.233 | – | 0.316 | 0.324 | 0.228 | 0.174 |
| HCC-366 | 0.138 | 0.177 | 0.0975 | 0.165 | 0.146 | 0.39 | 0.311 | 0.406 | 0.341 | 0.302 | 0.345 | 0.432 | 0.385 | 0.36 | 0.332 | 0.448 | 0.507 | 0.365 | 0.452 | 0.376 |
| HCC-827 | 0.995 | 1.06 | 1.05 | 1.09 | 0.843 | 0.453 | 0.544 | 0.6 | 0.472 | 0.404 | 0.666 | 0.614 | 0.618 | 0.633 | 0.416 | 0.891 | 0.977 | 0.996 | 1.07 | 0.726 |
| HOP-62 | 0.883 | 0.712 | – | 0.649 | 0.792 | 0.431 | 0.389 | 0.386 | 0.399 | 0.327 | – | 0.443 | 0.55 | 0.391 | 0.387 | 0.842 | 0.868 | 0.896 | 0.847 | 0.957 |
| IA-LM | 0.275 | 0.344 | 0.358 | 0.445 | 0.296 | – | – | – | – | – | 0.74 | 0.725 | 0.926 | 0.889 | 0.852 | 0.797 | 0.716 | 0.737 | 0.771 | 0.67 |
| LC-2-ad | 0.534 | 0.516 | 0.415 | 0.467 | 0.417 | 0.915 | 0.856 | 0.87 | 0.82 | 0.306 | 0.712 | 0.711 | 0.683 | 0.612 | 0.312 | 0.888 | 0.936 | 0.833 | 0.232 | 0.187 |
| LCLC-97TM1 | 0.236 | 0.182 | – | 0.231 | 0.152 | 0.21 | 0.189 | 0.179 | 0.211 | 0.184 | 0.442 | 0.327 | 0.457 | 0.426 | 0.411 | 0.265 | 0.2 | 0.257 | 0.173 | 0.237 |
| LCLC-103H | 0.756 | 0.63 | 0.517 | 0.586 | 0.574 | 0.659 | 0.639 | 0.734 | 0.698 | 0.677 | 0.732 | 0.707 | 0.791 | 0.78 | 0.679 | 0.971 | 0.992 | 1.04 | 1.01 | 0.959 |
| LK-2 | 0.545 | 0.431 | – | 0.534 | 0.586 | 0.649 | 0.568 | 0.697 | 0.737 | 0.659 | 0.761 | 0.817 | 0.745 | 0.519 | 0.622 | – | 1.07 | 1.12 | 0.962 | 0.773 |
| LOU-NH91 | 0.532 | 0.478 | 0.509 | 0.504 | 0.575 | 0.754 | 0.759 | 0.782 | 0.682 | 0.638 | 0.864 | 0.886 | 0.93 | 0.819 | 0.455 | 0.711 | 0.757 | 0.745 | 0.632 | 0.529 |
| LU99A | 0.324 | 0.339 | 0.263 | 0.385 | 0.279 | 0.496 | 0.451 | 0.572 | 0.467 | 0.538 | 0.246 | 0.245 | 0.302 | 0.28 | 0.244 | 0.517 | 0.556 | 0.492 | 0.498 | 0.346 |
| NCI-H522 | – | – | – | – | – | 0.971 | 0.722 | 0.739 | 0.784 | 0.73 | 0.484 | 0.549 | 0.572 | 0.511 | 0.703 | – | – | – | – | – |
| NCI-H1299 | 0.764 | 0.758 | 0.833 | 0.973 | 0.606 | – | – | – | – | – | 0.967 | 0.913 | 0.949 | 0.956 | 0.983 | 1.07 | 1.03 | 1.01 | 1.01 | 1.06 |
| NCI-H1563 | 0.656 | 0.663 | 0.583 | 0.658 | 0.678 | – | – | – | – | – | – | – | – | – | – | 0.904 | 0.922 | 0.976 | 0.875 | 0.954 |
| NCI-H1648 | – | – | – | – | – | 0.517 | 0.292 | 0.63 | 0.398 | 0.442 | 0.953 | 0.926 | 0.768 | 0.732 | 0.766 | – | – | – | – | – |
| NCI-H1650 | 0.668 | 0.608 | 0.553 | 0.645 | 0.593 | 0.496 | 0.534 | 0.6 | 0.296 | 0.229 | 0.676 | 0.93 | 0.887 | 0.758 | 0.345 | – | – | – | – | – |
| NCI-H1703 | 0.229 | 0.237 | 0.23 | 0.247 | 0.197 | – | – | – | – | – | 0.485 | 0.379 | 0.671 | 0.381 | 0.385 | 0.319 | 0.38 | 0.333 | 0.338 | 0.379 |
| NCI-H2342 | – | – | – | – | – | 0.763 | 0.757 | 0.773 | 0.857 | 0.841 | 0.409 | 0.407 | 0.467 | 0.452 | 0.424 | – | – | – | – | – |
| SW 900 | – | – | – | – | – | 0.841 | 0.793 | 0.928 | 0.67 | 0.549 | 0.871 | 0.797 | 1.07 | 0.621 | 0.494 | – | – | – | – | – |
